Reference: PubChem BioAssay (NCI)
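Results reflect a 48-hour exposure of cells in 96-well plates to compound at five concentrations. Abbreviation: GI50, concentration required for 50% inhibition of growth. TGI is the concentration that stops growth completely.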

What was measured:
Experiment in all cases: growth of human tumour cells (NCI), 48 h
COLO 205 colon = test system: COLO 205 colon
MALME-3M melanoma = test system: MALME-3M melanoma
NCI-H23 lung = test system: NCI-H23 lung
OVCAR-3 ovarian = test system: OVCAR-3 ovarian
SF-295 CNS = test system: SF-295 CNS
SN12C renal = test system: SN12C renal
BT-549 breast = test system: BT-549 breast
DU-145 prostate = test system: DU-145 prostate
MCF7 breast = test system: MCF7 breast
NCI/ADR-RES ovarian = test system: NCI/ADR-RES ovarian

| Structure (SMILES) | TGI (COLO 205 colon) [µM] | TGI (MALME-3M melanoma) [µM] | TGI (NCI-H23 lung) [µM] | TGI (OVCAR-3 ovarian) [µM] | TGI (SF-295 CNS) [µM] | TGI (SN12C renal) [µM] | GI50 (BT-549 breast) [µM] | TGI (BT-549 breast) [µM] | GI50 (COLO 205 colon) [µM] | GI50 (DU-145 prostate) [µM] | TGI (DU-145 prostate) [µM] | GI50 (MCF7 breast) [µM] | TGI (MCF7 breast) [µM] | GI50 (NCI-H23 lung) [µM] | GI50 (NCI/ADR-RES ovarian) [µM] | TGI (NCI/ADR-RES ovarian) [µM] | GI50 (OVCAR-3 ovarian) [µM] | GI50 (SF-295 CNS) [µM] | GI50 (SN12C renal) [µM] | GI50 (MALME-3M melanoma) [µM] |
| --- | --- | --- | --- | --- | --- | --- | --- | --- | --- | --- | --- | --- | --- | --- | --- | --- | --- | --- | --- | --- |
| O=C1/C(=C/c2ccc3c(c2)OCO3)SC2C=Nc3ccccc3N12 (configuration not stated) | > 100 | > 100 | > 100 | > 100 | > 100 | > 100 |  |  |  |  |  |  |  |  |  |  |  |  |  |  |
| Cc1ccc(NC(=O)CCc2cc(C(C)(C)C)nc(=S)[nH]2)cc1C | > 100 | > 100 | > 100 | > 100 | > 100 | > 100 |  |  |  |  |  |  |  |  |  |  |  |  |  |  |
| Cc1ccc(/C=C/C(=O)c2sc(-c3nc(C)c(C(=O)/C=C/c4ccc(C)cc4)s3)nc2C)cc1 | > 100 | > 100 | > 100 | > 100 | > 100 | > 100 |  |  |  |  |  |  |  |  |  |  |  |  |  |  |
| O=C1/C(=C/c2cccc(Cl)c2Cl)N=C(c2ccccc2)N1C1CC1 | > 50 |  | 19.5 | > 50 | 31.3 | 17.5 | 9.84 | 24.1 | 15.1 | 12.1 | 29.4 | 7.98 | 19.2 | 9.35 | 11.8 | 31.1 | 22.1 | 12.7 | 8.62 |  |
| Cc1cc(Cl)ccc1NC(=O)C(=O)Cc1nc2ccccc2o1 | > 100 | > 100 | > 100 | > 100 | > 100 | > 100 |  |  |  |  |  |  |  |  |  |  |  |  |  |  |
| O=C(/C=C/c1cccc2ccccc12)c1ccccc1Cl | > 100 | 30.2 | 28.5 | 25.6 |  | > 100 |  |  |  |  |  |  |  |  |  |  |  |  |  |  |
| [N-]=[N+]=N[C@H]1C[C@@H](CO)O[C@H]1n1cnc2c(N)ncnc21 | > 100 | > 100 | > 100 | > 100 | > 100 | > 100 |  |  |  |  |  |  |  |  |  |  |  |  |  |  |
| NC(=O)C12CC3CC(CC(F)(C3)C1)C2 | > 100 | > 100 | > 100 | > 100 |  |  |  |  |  |  |  |  |  |  |  |  |  |  |  |  |
| COc1cc(F)ccc1-c1ncnc(Nc2cccc(CS(C)(=N)=O)c2)n1 (configuration not stated) | 2.18 | 9.66 | 7.14 | > 100 |  | > 100 | 1.07 | > 100 | 0.4 | 0.784 | > 100 | 0.414 | > 100 | 0.679 | 3.19 | > 100 | 0.45 |  | 0.645 | 2.73 |
| C1=CC(N(c2ccccc2)C2C=CCCC2)CCC1 (configuration not stated) | > 100 |  | > 100 |  | > 100 | > 100 |  |  |  |  |  |  |  |  |  |  |  |  |  |  |
| O=c1ccn([C@H]2CSC[C@@H](CO)C2)c(=O)[nH]1 |  | > 100 | > 100 | > 100 |  | > 100 |  |  |  |  |  |  |  |  |  |  |  |  |  |  |
| CN(C)C(n1cc2c(c1)-c1ccc(Cl)cc1C(c1ccccc1F)=NC2)n1cc2c(c1)-c1ccc(Cl)cc1C(c1ccccc1F)=NC2 | > 100 | > 100 | 24.4 | > 100 | > 100 | > 100 |  |  |  |  | > 100 |  | > 100 |  |  | > 100 |  |  |  |  |
